{"source": "patent US10081615B2", "about": "“Sulfamate derivative compounds for use in treating or alleviating pain” (Bio-Pharm Solutions Co., Ltd., priority 2013, dated 2018)", "key": {"[1]": {"test_system": "hot plate withdrawal latency", "experiment": "Hot-plate test", "type": "in vivo, ICR mice", "conditions": "mouse, oral", "protocol": "To examine the pain relief effect of the sulfamate derivative compounds, a hot-plate test was conducted referring to Current Protocols in Neuroscience; Behavioral Neuroscience Unit 8.9.\nICR mice (male, 30-35 g; Orient Bio, Korea) were habituated before the test in the test room for 1 hour. Animals were fasted 2 hr before administration of the compounds. […] All compounds were dissolved in a vehicle of 30% (v/v) PEG 400 or 20% (v/v) Tween 80. The control group was treated with vehicle without treatment compounds.\n0.5 hr after the administration of compounds, the mice were put on a hot plate pre-heated to 55±1° C. (Hu, X. et al, 2008), and then, the withdrawal latency was measured (cut-off time: 30 sec) until the point when each mouse was taking a paw off from the plate, shaking, licking a paw or hind leg, or jumping from the plate."}, "[2]": {"test_system": "acetic acid-induced writhes", "experiment": "Writhing test (acetic acid)", "type": "in vivo, ICR mice", "protocol": "To examine the pain relief effect of the sulfamate derivative compounds, a writhing test was referring to Fischer, L. G. et al. (2008).\nICR mice (male, 24-28 g; Orient Bio, Korea) were habituated before test in test room for 1 hour. Animals were fasted for 2 hr before administration of compounds. […] All compounds were dissolved in a vehicle of 30% (v/v) PEG 400 or 20% (v/v) Tween 80. The control group was treated with the vehicle without compounds.\n[…] Animals were habituated in the cage for 5 min. 5 min after habituation, the number of writhes (abdominal constriction) was counted for 15 minutes referring to Korzeniewska-Rybicka, I. et al. (1998) and compared with that of the control."}, "[3]": {"test_system": "Vincristine-induced pain model", "experiment": "Antiallodynic activity in the vincristine-induced pain model (von Frey)", "type": "in vivo, Sprague-Dawley rats", "conditions": "rat, intraperitoneal, 0.5 h; for ED50: ip", "protocol": "Male, Sprague-Dawley rats (300-320 g, Nara Bio, Korea) were habituated for 1 week before surgery and allowed free access to food and water throughout the experimentation. Room temperature and humidity were maintained at 24±2° C. and 50±10%, respectively.\nThe vincristine-induced pain model was established by the procedure of Natsuko et al. (2001) with minor modifications. Vincristine was intravenously infused continuously for 14 days using a mini-osmotic pump as follows: Vincristine sulfate solution (Hospira, Australia) was diluted with 0.9% saline to a final dose of 30 ug/kg. The pumps (Alzet Model 2002, USA) were filled with the vincristine solution and primed by incubation at 37° C. for 4 h before the infusion. Briefly, animals were put under gaseous anesthesia with isoflurane and NO with a 4:4 flow ratio. A catheter made from PE-60 tubing was inserted into an external jugular vein in the rat. Sham controls were prepared in the same manner, with the external jugular vein exposed, but not cut down. Preparation of the vehicle controls were identical to the group treated with compound, except for administration of vehicles without compound in the vehicle control group.\nTactile sensitivity (mechanical allodynia) was evaluated using von Frey monofilaments before and after treatment, and the animals were included in the study only if the withdrawal threshold value was less than 4 g. One week after surgery, vincristine-infused animals (n=6), sham-operated animals (n=12) and vehicle-operated (n=18) animals were tested for tactile sensitivity with von Frey monofilaments with 3 trials in each animal. All animals were placed in a stainless steel mesh chamber and habituated for 30 min in the test cage. The tactile sensitivity for the ipsilateral hind paw was measured using the up-and-down method (Dixon, 1980) with seven von Frey monofilaments (0.4, 1, 2, 4, 6, 8, and 15 g) in 3 trials. The tactile sensitivity test was followed by Dixon's method. The 50% paw withdrawal threshold for each paw was calculated using the following formula: [Xth] log=[vFr] log+ky where [vFr] is the force of the last von Frey used, k=0.2249 which is the average interval (in log units) between the von Frey monofilaments, and y is a value that depends upon the pattern of withdrawal responses (Dixon, 1980).\n[…] The test was performed at the peak time of efficacy (0.5 hr) after compound administration.\nThe relative values compared to the sham (% control) were calculated and are shown in Table 11, which show an antiallodynic effect of the compound of examples in the vincristine-induced pain model in rats."}, "[4]": {"conditions": "Mus musculus, po, 0.5 h, read-out: Writh test: ED50 mg/kg"}}, "note": "Like-named read-outs stand apart in the source and are kept apart here.", "data": [{"smiles": "CC1(C)Oc2ccccc2[C@@H](COS(N)(=O)=O)O1", "note": "[Example 2, ((S)-2,2-dimethyl-4H-benzo[d][1,3]dioxin-4-yl)methyl sulfamate]", "values": [{"measurement": "ED50", "setting": "[1]; 0.5 h", "result": 170, "unit": "mg/kg"}, {"measurement": "ED50", "setting": "[2]; mouse, oral, 1 h, read-out: Writh test: ED50", "result": 152, "unit": "mg/kg"}]}, {"smiles": "CC1(C)Oc2ccccc2[C@H](COS([NH-])(=O)=O)O1.[K+]", "note": "[Example 70, Potassium (R)-(((2,2-dimethyl-4H-benzo[d][1,3]dioxin-4-yl)methoxy)sulfonyl)amide]", "values": [{"measurement": "Vincristine model: effect (%) compared to control", "setting": "[3]; 2.4 mg/kg administered", "result": "(36.2%, 0.5 h)"}, {"measurement": "Writh test: effect (%) compared to control", "setting": "[2]; mouse, oral, 80 mg/kg administered, 1 hr", "result": "(29.1%, 1 hr)"}]}, {"smiles": "[NH-]S(=O)(=O)OC[C@H]1OC2(CCCC2)Oc2ccccc21.[Na+]", "note": "[Example 65, Sodium (S)-(((4H-spiro[benzo[d][1,3]dioxine-2,1′-cyclopentan]-4-yl)methoxy)sulfonyl)amide]", "values": [{"measurement": "ED50", "setting": "[3]", "result": 8.2, "unit": "mg/kg"}, {"measurement": "melting point", "result": "121.2 to 131.9", "unit": "°C"}, {"measurement": "ED50", "setting": "[2]; [4]", "result": 55.1, "unit": "mg/kg"}]}, {"smiles": "CC1(C)Oc2ccccc2[C@H](COS([NH-])(=O)=O)O1.[Na+]", "note": "[Example 58, Sodium (R)-(((2,2-dimethyl-4H-benzo[d][1,3]dioxin-4-yl)methoxy)sulfonyl)amide Trihydrate]", "values": [{"measurement": "ED50", "setting": "[3]", "result": 6.2, "unit": "mg/kg"}]}, {"smiles": "CC1(C)Oc2ccccc2C(COS([NH-])(=O)=O)O1.[Na+]", "note": "(centres unmarked) [Example 60, Sodium (((2,2-dimethyl-4H-benzo[d][1,3]dioxin-4-yl)methoxy)sulfonyl)amide Trihydrate]", "values": [{"measurement": "ED50", "setting": "[3]", "result": 2.4, "unit": "mg/kg"}, {"measurement": "Hot plate test: effect (%) compared to control", "setting": "[1]; 170 mg/kg administered, time not given", "result": "(196.2%)"}, {"measurement": "ED50", "setting": "[2]; [4]", "result": 21, "unit": "mg/kg"}]}]}
